Laboratory results published in patent USRE42890E1, “Furazanobenzimidazoles” (Basilea Pharmaceutica AG, priority 2003, dated 2011).
pIC50: −log10 of the molar value. Read-outs that look alike come from different tables or passages of the source.

Experiments:
Jurkat = assay: MTS proliferation assay, Jurkat; format: cell-based, human; details: 72 h incubation, read-out: MTS proliferation assay IC 50 Jurkat
Experimental: (§1) Cell lines are cultured in RPMI-1640 tissue culture medium containing either 5% or 10% fetal calf serum, 0.05 mM 2-mercaptoethanol, 2 mM glutamine and penicillin/streptomycin 50 μg/ml (complete medium) (Sigma, Buchs, Switzerland). General growth conditions are 37° C. and 7.5% CO2.
(§2) The following human cell lines (either EGFP transfected or not) are being used: HeLa (ATCC: CCL-2), KB (ATCC: CCL-17), MCF7 (ATCC: HTB-22), SK-BR-3 (ATCC: HTB-30), SK-Mel 1 (ATCC: HTB-67), SK-Mel 28 (ATCC: HTB-72), PC-3 (ATCC: CRL-1435), SW 480 (ATCC: CCL-228), NCl-H460 (ATCC: HTB-177), NCl-H1792 (ATCC: CRL-5895), HT1080 (ATCC: CCL-21), Jurkat (ATCC: TIB-152), Ramos (ATCC: CRL-1596), Raji (ATCC: CCL-86), H9 (ATCC: HTB-176), Hut78 (ATCC: TIB-161), K562 (ATCC: CCL 243), HL-60 (ATCC: CCL 240), U-87MG (ATCC: HTB-14), HepG2 (ATCC: HB-8065), U-2 OS (ATCC: HTB-96), Saos-2 (ATCC: HTB-85), U937 (ATCC: CRL 1593), Hs 578T (ATCC: HTB 126), HBL-100 (ATCC: HTB 124), Molt-4 (ATCC: CRL 1582).
(§3) The assay is performed in 96 well tissue culture plates. The cells (range: 1.5*10^3-10^4) are seeded out in 80 μl complete medium 24 h prior to compound treatment. The test compounds are added in 20 μl complete medium containing max 5% DMSO. The final compound concentrations in the assays are 10 μM, 3 μM, 1 μM and 0.3 μM, respectively. The assay plates are incubated for 72 h at culture conditions. The MTS reagent is prepared according to the manufacturer's protocol (Promega G1111). 20 μl MTS reagent are added to each well, the assay plates are quickly spun and incubated for another 3 h at culture conditions. Subsequently, the plates are shortly shaked and absorption measured with a microplate-reader at 492 nm.

MRC5 = assay: MTS proliferation assay, MRC5; format: cell-based; details: MRC5, 72 h incubation, read-out: MTS proliferation assay IC 50 MRC5
Experimental: as §1, §3

[1] = tested on: adherent cells or suspension cells; assay: Hoechst 33342 nuclear staining (fraction of apoptotic nuclei); format: cell-based; set-up: key: 0 relating to no activity; 1 relating to weak activity comprising less than 70% of the cells; score 2 relating to strong activity comprising more than 70% of the cells
Experimental: as §1
This assay is performed in 96 well tissue culture plates. Appropriate number of cells (adherent cells: 3-5*10^3, suspension cells: 8-10*10^3) are being seeded out in 80 μl complete medium. Adherent cells are incubated for 24 h for proper spreading out before addition of test compounds while suspension cells are immediately treated with test compounds after seeding out. The test compounds are added in 20 μl complete medium containing max 5% DMSO. […] After 24 h or 48 h incubation at culture conditions, 10 μl medium containing Hoechst 33342 dye (Sigma B-2261) at 2-5 μg/ml are added to each well. The assay plates are then further incubated for 30 minutes and subsequently analyzed with a standard inverted fluorescence microscope.
The readout allows the determination of the fraction of apoptotic nuclei as well as other morphological criteria specific for apoptosis as a function of the treatment. The following scores are used: 0 relating to no activity, 1 relating to weak activity comprising less than 70% of the cells and score 2 relating to strong activity comprising more than 70% of the cells.

HeLa = assay: MTS proliferation assay, HeLa; format: cell-based, human; details: 72 h incubation, read-out: MTS proliferation assay IC 50 HeLa
Experimental: as §1, §2, §3

Compound | pIC50 (Jurkat) | pIC50 (MRC5) | Hoechst 33342 nuclear staining score ([1]; H460, conc 0.01 μm) | Hoechst 33342 nuclear staining score ([1]; H460, conc 0.1 μm) | Hoechst 33342 nuclear staining score ([1]; H460, conc 1 μm) | Hoechst 33342 nuclear staining score ([1]; HeLa, conc 0.01 μm) | Hoechst 33342 nuclear staining score ([1]; HeLa, conc 0.1 μm) | Hoechst 33342 nuclear staining score ([1]; HeLa, conc 1 μm) | Hoechst 33342 nuclear staining score ([1]; Jily, conc 0.01 μm) | Hoechst 33342 nuclear staining score ([1]; Jily, conc 0.1 μm) | Hoechst 33342 nuclear staining score ([1]; Jurkat, conc 0.01 μm) | Hoechst 33342 nuclear staining score ([1]; Jurkat, conc 0.1 μm) | Hoechst 33342 nuclear staining score ([1]; Jurkat, conc 1 μm) | Hoechst 33342 nuclear staining score ([1]; MRC5, conc 0.01 μm) | Hoechst 33342 nuclear staining score ([1]; MRC5, conc 0.1 μm) | Hoechst 33342 nuclear staining score ([1]; MRC5, conc 1 μm) | Hoechst 33342 nuclear staining score ([1]; PBLs, conc 0.01 μm) | Hoechst 33342 nuclear staining score ([1]; PBLs, conc 0.1 μm) | Hoechst 33342 nuclear staining score ([1]; PBLs, conc 1 μm) | pIC50 (HeLa) | further results
Cc1cc2nc(-c3nonc3N)n(CC(=O)c3ccc(Br)cc3)c2cc1C [Example 109] | 6.00 to 7.00 | < 6.00 | 0 | 0 | 0 | 0 | 0 | 0 | 0 | 0 | 0 | 0 | 0 | 0 | 0 | 0 | 0 | 0 | 0 | < 6.00 | Hoechst 33342 nuclear staining score ([1]; Jily, conc 1 μm): 0
CON=C(Cn1c(-c2nonc2N)nc2ccccc21)c1ccc(OC)cc1 (mixture of isomers) [Example 38] | 6.00 to 7.00 | < 6.00 | 0 | 0 | 0 | 0 | 0 | 0 | 0 | 0 | 0 | 0 | 0 | 0 | 0 | 0 | 0 | 0 | 0 | 6.00 to 7.00 | Hoechst 33342 nuclear staining score ([1]; Jily, conc 1 μm): 0
Nc1nonc1-c1nc2ccccc2n1CC(=NO)c1ccc(Br)cc1 [Example 2, 4-[1-(4-Bromophenacyl)-1H-benzimidazol-2-yl]-furazan-3-ylamine oxime] | – | – | 0 | 0 | 0 | 0 | 0 | 0 | – | – | 0 | 0 | 0 | 0 | 0 | 0 | 0 | 0 | 0 | – | pIC50 (Jurkat; Homo sapiens): < 6.00; pIC50 (MRC5; Homo sapiens): < 6.00; pIC50 (HeLa; Homo sapiens): < 6.00
COc1cccc(C(=O)Cn2c(-c3nonc3N)nc3ccccc32)c1 [Example 23] | 6.00 to 7.00 | 6.00 to 7.00 | – | – | – | 0 | 0 | 2 (score 2 relating to strong activity comprising more than 70% of the cells) | – | – | 0 | 0 | 2 (score 2 relating to strong activity comprising more than 70% of the cells) | 0 | 0 | 0 | 0 | 0 | 0 | 6.00 to 7.00 | –
